Assay results from patent US6638921B1, “Pyridoxal-5-phosphate derivatives as HIV integrase inhibitors” (Pharmacor Inc., priority 2002, dated 2003).
Structures can show the parent of a compound that is named as a salt. Where two headings read alike, the source gives them in different places.

What was measured:
[1] = system: HIV-1 laboratory viral strain NL4.3; test: Anti-viral assay in vitro (MTT, infected MT-4 cells); format: cell-based; settings: reduce virus replication in cell culture by 50%, six days
Description: (§1) To evaluate the EC50 of our compounds, various drug concentrations are incubated with the infected cell for six days and then the metabolic activity of the cells is monitored by the MTT assay. (See A. J. Japour et al, Antimicrobial Agents and Chemotherapy, 37, 1095-1101, 1993 and R. Pauwels et al. Journal of Virological Methods, 20, 309-321, 1988).
(§2) We use the laboratory viral strain NL4.3 as wild type virus and the cell line used is MT-4 which is a T-cell line highly sensitive to HIV-1. We also use some WT clinical strains. To address the resistance issue we assay the inhibitors with NL4.3 mutants which are designed to be resistant to specific commercially available inhibitors. The following reagents were obtained through the AIDS Research and Reference Reagent Program, division of AIDS, NIAID, NIH: pNL4.3 from Dr. Malcolm Martin; MT-4 cell line from Dr. Douglas Richman. Wild type (WT) clinical strains were obtained from “Laboratoire de santé publique du Québec”.

HIV-1 integrase = HIV-1 integrase (Human immunodeficiency virus type 1 group M subtype B, UniProt P12497); test: HIV-1 integrase inhibition assay in vitro (radiolabeled duplex substrate, U5 end of HIV LTR); format: biochemical
Description: For the purpose of Table 1, the HIV-1 integrase inhibition assay was carried out following a known procedure (Burke, Jr. T. R. et al., J. Med. Chem. 38, 4171-4178 (1995)). A suitable radiolabeled duplex substrate corresponding to the U5 end of the HIV LTR was used.

MT-4 cell line = test: Cytotoxicity assay in vitro (MTT, virus omitted); format: cell-based
Description: as §1, §2
The same MTT assay is used to evaluate the CCIC50 of our compounds except that the virus is omitted.

[2] = Human immunodeficiency virus 1, MT4, 144 h
[3] = IC50, concentration of drug required to reduce the enzyme activity by 50%

Q: `Cc1nc(N=Nc2ccc(S(=O)(=O)N3CCCCC3)cc2)c(COP(=O)(O)O)c(C=O)c1O` [Example 7, 6-[4-(1-Piperidinesulfonyl)phenylazo]-pyridoxal-5-phosphate] was tested. Which EC50 [1, 2] did it give?
A: 12.5 µM

Q: What about the IC50 (HIV-1 integrase; [3]) of the same compound?
A: 2.5 µM

Q: And the CCIC50 (MT-4 cell line; human, 6 days)?
A: >100 µM

Q: What does the source list for `Cc1nc(N=Nc2cccc(S(=O)(=O)NC(C)(C)C)c2)c(COP(=O)(O)O)c(C=O)c1O` [Example 9, 6-[3-(tert-Butylsulfamoyl)phenylazo]-pyridoxal-5-phosphate]?
A: EC50 [1, 2]: 15 µM; IC50 (HIV-1 integrase; [3]): 3 µM; CCIC50 (MT-4 cell line; human, 6 days): 57 µM

Q: Which results are given for `Cc1nc(N=Nc2cccc(C(=O)NCC(C)C)c2)c(COP(=O)(O)O)c(C=O)c1O` [Example 13, 6-[3-(Isobutylcarbamoyl)phenylazo]-pyridoxal-5-phosphate]?
A: EC50 [1, 2]: 50 µM; IC50 (HIV-1 integrase; [3]): 1.3 µM; CCIC50 (MT-4 cell line; human, 6 days): 90 µM

Q: With `Cc1nc(N=Nc2ccc(S(=O)(=O)Nc3nccs3)cc2)c(COP(=O)(O)O)c(C=O)c1O` [Example 24, 6-[4-(2-Thiazolylsulfamoyl)phenylazo]-pyridoxal-5-phosphate] as the compound, how does the EC50 [1, 2] read?
A: 23 µM

Q: What about the IC50 (HIV-1 integrase; [3]) of the same compound?
A: 0.365 µM

Q: What about the CCIC50 (MT-4 cell line; human, 6 days) of the same compound?
A: >100 µM

Q: With `Cc1nc(N=Nc2ccc(S(=O)(=O)Nc3ncccn3)cc2)c(COP(=O)(O)O)c(C=O)c1O` [Example 25, 6-[4-(2-Pyrimidylsulfamoyl)phenylazo]-pyridoxal-5-phosphate] as the compound, how does the EC50 [1, 2] read?
A: 4.3 µM

Q: And the IC50 (HIV-1 integrase; [3])?
A: 0.3 µM

Q: And the CCIC50 (MT-4 cell line; human, 6 days)?
A: >100 µM

Q: How did the EC50 [1, 2] turn out when `Cc1nc(N=Nc2cccc(S(=O)(=O)N3CCOCC3)c2)c(COP(=O)(O)O)c(C=O)c1O` [Example 27, 6-[3-(Morpholinesulfamoyl)phenylazo]-pyridoxal-5-phosphate] was run?
A: 27.5 µM

Q: And the IC50 (HIV-1 integrase; [3])?
A: 1.1 µM

Q: What about the CCIC50 (MT-4 cell line; human, 6 days) of the same compound?
A: >100 µM

Q: With `Cc1nc(N=Nc2cccc(C(=O)Nc3cccnc3)c2)c(COP(=O)(O)O)c(C=O)c1O` [Example 28, 6-[3-(3-Pyridylcarbamoyl)phenylazo]-pyridoxal-5-phosphate] as the compound, how does the EC50 [1, 2] read?
A: 6.25 µM

Q: And the IC50 (HIV-1 integrase; [3])?
A: 3.25 µM

Q: What about the CCIC50 (MT-4 cell line; human, 6 days) of the same compound?
A: 50 µM

Q: Which results are given for `Cc1nc(N=Nc2cccc(C(=O)Nc3ccccn3)c2)c(COP(=O)(O)O)c(C=O)c1O` [Example 29, 6-[3-(2-Pyridylcarbamoyl)phenylazo]-pyridoxal-5-phosphate]?
A: EC50 [1, 2]: 24 µM; IC50 (HIV-1 integrase; [3]): 3.85 µM; CCIC50 (MT-4 cell line; human, 6 days): >100 µM

Q: With `Cc1nc(N=Nc2cccc(C(=O)Nc3ccncc3)c2)c(COP(=O)(O)O)c(C=O)c1O` [Example 30, 6-[3-(4-Pyridylcarbamoyl)phenylazo]-pyridoxal-5-phosphate] as the compound, how does the EC50 [1, 2] read?
A: 20 µM

Q: And the IC50 (HIV-1 integrase; [3])?
A: 3.15 µM

Q: What about the CCIC50 (MT-4 cell line; human, 6 days) of the same compound?
A: 87 µM

Q: How did the EC50 [1, 2] turn out when `Cc1nc(N=Nc2cccc(C(=O)Nc3cccc4cnccc34)c2)c(COP(=O)(O)O)c(C=O)c1O` [Example 31, 6-[3-(5-Isoquinolylcarbamoyl)phenylazo]-pyridoxal-5-phosphate] was run?
A: 15 µM

Q: What about the IC50 (HIV-1 integrase; [3]) of the same compound?
A: 3.25 µM

Q: What about the CCIC50 (MT-4 cell line; human, 6 days) of the same compound?
A: >100 µM

Q: With `Cc1nc(N=Nc2cccc(C(=O)Nc3cccc4c3CCCN4)c2)c(COP(=O)(O)O)c(C=O)c1O` [Example 37, 6-[3-(5-(1,2,3,4-Tetrahydroquinolyl)carbamoyl)phenylazo]-pyridoxal-5-phosphate] as the compound, how does the EC50 [1, 2] read?
A: 26 µM

Q: What about the IC50 (HIV-1 integrase; [3]) of the same compound?
A: 3.3 µM

Q: What about the CCIC50 (MT-4 cell line; human, 6 days) of the same compound?
A: 84 µM

Q: How did the EC50 [1, 2] turn out when `Cc1ccc(C(=O)O)cc1N=Nc1nc(C)c(O)c(C=O)c1COP(=O)(O)O` [Example 38, 6-(5-Carboxy-2-methylphenylazo)-pyridoxal-5-phosphate] was run?
A: 50 µM

Q: What about the IC50 (HIV-1 integrase; [3]) of the same compound?
A: 2.3 µM

Q: What about the CCIC50 (MT-4 cell line; human, 6 days) of the same compound?
A: >100 µM

Q: For `Cc1nc(N=Nc2cccc(C(=O)O)c2Cl)c(COP(=O)(O)O)c(C=O)c1O` [Example 39, 6-(3-Carboxy-2-chlorophenylazo)-pyridoxal-5-phosphate], which EC50 [1, 2] is on record?
A: 1.8 µM

Q: What about the IC50 (HIV-1 integrase; [3]) of the same compound?
A: 2.6 µM

Q: What about the CCIC50 (MT-4 cell line; human, 6 days) of the same compound?
A: >100 µM

Q: Which EC50 ([1]; read-out: EC50) does the source give for `Cc1nc(N=Nc2cc(C(=O)O)ccc2Cl)c(COP(=O)(O)O)c(C=O)c1O` [Example 40, 6-(5-Carboxy-2-chlorophenylazo)-pyridoxal-5-phosphate] here?
A: 17 µM

Q: And the IC50 (HIV-1 integrase; concentration of drug required to reduce the enzyme activity by 50%, read-out: IC50)?
A: 3.35 µM

Q: What about the CCIC50 (MT-4 cell line; reduce cell survival by 50%, MTT assay, virus omitted) of the same compound?
A: >100 µM

Q: For `Cc1nc(N=Nc2cc(F)c(F)c(C(=O)O)c2F)c(COP(=O)(O)O)c(C=O)c1O` [Example 41, 6-(3-Carboxy-2,4,5-trifluorophenylazo)-pyridoxal-5-phosphate], which EC50 [1, 2] is on record?
A: 14 µM

Q: What about the IC50 (HIV-1 integrase; [3]) of the same compound?
A: 2 µM

Q: And the CCIC50 (MT-4 cell line; human, 6 days)?
A: >100 µM

Q: How did the EC50 [1, 2] turn out when `Cc1nc(N=Nc2cccc(C(=O)O)c2C(=O)O)c(COP(=O)(O)O)c(C=O)c1O` [Example 47, 6-(2,3-Dicarboxyphenylazo)-pyridoxal-5-phosphate] was run?
A: 10 µM

Q: And the IC50 (HIV-1 integrase; [3])?
A: 0.165 µM

Q: And the CCIC50 (MT-4 cell line; human, 6 days)?
A: 17 µM

Q: For `Cc1nc(N=Nc2ccccc2C(=O)O)c(COP(=O)(O)O)c(C=O)c1O` [Example 48, 6-(2-Carboxyphenylazo)-pyridoxal-5-phosphate], which EC50 [1, 2] is on record?
A: > 20 µM

Q: What about the IC50 (HIV-1 integrase; [3]) of the same compound?
A: 0.345 µM

Q: What about the CCIC50 (MT-4 cell line; human, 6 days) of the same compound?
A: >100 µM

Q: Which results are given for `Cc1nc(N=Nc2cc(C(=O)O)cc(C(=O)O)c2)c(COP(=O)(O)O)c(C=O)c1O` [Example 49, 6-(3,5-Dicarboxyphenylazo)-pyridoxal-5-phosphate Methanesulfonic Acid Salt]?
A: EC50 [1]: 0.275 µM; IC50 (HIV-1 integrase; [3]): 0.5 µM; CCIC50 (MT-4 cell line; human, 6 days): 12 µM

Q: With `Cc1nc(N=Nc2cc(C(=O)O)cc(C(=O)O)c2)c(COP(=O)(O)O)c(C=O)c1O` [Example 50, 6-(3,5-Dicarboxyphenylazo)-pyridoxal-5-phosphate Penta-potassium Salt] as the compound, how does the EC50 [1] read?
A: 5 µM

Q: What about the IC50 (HIV-1 integrase; [3]) of the same compound?
A: 0.47 µM

Q: What about the CCIC50 (MT-4 cell line; human, 6 days) of the same compound?
A: >100 µM

Q: For `CCOC(OCC)c1c(O)c(C)nc(N=Nc2cc(C(=O)O)cc(C(=O)O)c2)c1COP(=O)(O)O` [Example 51, 6-(3,5-Dicarboxyphenylazo)-pyridoxal-5-phosphate Diethylacetal], which EC50 [1, 2] is on record?
A: 0.35 µM

Q: What about the IC50 (HIV-1 integrase; [3]) of the same compound?
A: 0.125 µM

Q: And the CCIC50 (MT-4 cell line; human, 6 days)?
A: >100 µM

Q: What does the source list for `Cc1nc(N=Nc2cc(C(=O)O)cc(C(=O)O)c2)c(COP(=O)(O)O)c(C=NO)c1O` [Example 52, 6-(3,5-Dicarboxyphenylazo)-pyridoxal-5-phosphate Oxime]?
A: EC50 [1, 2]: 15 µM; IC50 (HIV-1 integrase; [3]): 8.75 µM; CCIC50 (MT-4 cell line; human, 6 days): 60 µM
